Tests used:
[1] = victivallis vadensis, 12 h, 2 µM
Description: The drug is tested on Victivallis vadensis strain: ATCC BAA-548 for biotransformation. The drug concentrations were measured before and after a 12-h incubation by liquid-chromatography-coupled mass spectrometry (LC–MS)

[2] = roseburia intestinalis, 12 h, 2 µM
Description: The drug is tested on Roseburia intestinalis strain: L1-82 for biotransformation. The drug concentrations were measured before and after a 12-h incubation by liquid-chromatography-coupled mass spectrometry (LC–MS)

[3] = The drug is tested on Providencia rettgeri strain: DSM1131 for biotransformation. The drug concentrations were measured before and after a 12-h incubation by liquid-chromatography-coupled mass spectrometry (LC–MS); type: ADME; design: dose 2 uM, timepoint 0 vs 12 hours; conditions: 2 µM
[4] = The drug is tested on Bacteroides fragilis strain: HMW610 for biotransformation. The drug concentrations were measured before and after a 12-h incubation by liquid-chromatography-coupled mass spectrometry (LC–MS); conditions: 2 µM
[5] = The drug is tested on Bacteroides ovatus strain: ATCC8483 for biotransformation. The drug concentrations were measured before and after a 12-h incubation by liquid-chromatography-coupled mass spectrometry (LC–MS); conditions: 2 µM
[6] = The drug is tested on Eggerthella lenta strain: ATCC25559 for biotransformation. The drug concentrations were measured before and after a 12-h incubation by liquid-chromatography-coupled mass spectrometry (LC–MS); conditions: 2 µM
[7] = bacteroides stercoris, 12 h, 2 µM
Description: The drug is tested on Bacteroides stercoris strain: ATCC43183 for biotransformation. The drug concentrations were measured before and after a 12-h incubation by liquid-chromatography-coupled mass spectrometry (LC–MS)

Row | Compound | Bacterial Biotransformation [1] | Bacterial Biotransformation [2] | Bacterial Biotransformation [3] | Bacterial Biotransformation [4] | Bacterial Biotransformation [5] | Bacterial Biotransformation [6] | Bacterial Biotransformation [7]
1 | C[C@]12C=CC(=O)C=C1CC[C@@H]1[C@@H]2C(=O)C[C@@]2(C)[C@H]1CC[C@]2(O)C(=O)CO [PREDNISONE] | Compound NOT metabolized | Compound NOT metabolized | Compound NOT metabolized | Compound NOT metabolized | Compound NOT metabolized | – | –
2 | CCN(CC)CCNC(C(=O)OCCC(C)C)c1ccccc1.Cl.Cl (configuration not stated) | Compound NOT metabolized | Compound NOT metabolized | Compound NOT metabolized | Compound NOT metabolized | Compound NOT metabolized | – | –
3 | CCOc1ccccc1OCCN[C@H](C)Cc1ccc(OC)c(S(N)(=O)=O)c1.Cl [TAMSULOSIN HYDROCHLORIDE] | – | Compound NOT metabolized | Compound NOT metabolized | Compound NOT metabolized | Compound NOT metabolized | Compound NOT metabolized | Compound NOT metabolized
4 | CC(C)c1nc(CN(C)C(=O)N[C@H](C(=O)N[C@@H](Cc2ccccc2)C[C@H](O)[C@H](Cc2ccccc2)NC(=O)OCc2cncs2)C(C)C)cs1 [RITONAVIR] | Compound NOT metabolized | Compound NOT metabolized | Compound NOT metabolized | – | Compound NOT metabolized | Compound NOT metabolized | Compound NOT metabolized
5 | CCCCCCOC(=O)/N=C(/N)c1ccc(NCc2nc3cc(C(=O)N(CCC(=O)OCC)c4ccccn4)ccc3n2C)cc1.CS(=O)(=O)O [DABIGATRAN ETEXILATE MESYLATE] | Compound NOT metabolized | Compound NOT metabolized | Compound NOT metabolized | – | Compound NOT metabolized | Compound NOT metabolized | Compound NOT metabolized
6 | CCCCCNC(=N)N/N=C/c1c[nH]c2ccc(OC)cc12.O=C(O)/C=C\C(=O)O [TEGASEROD MALEATE] | Compound NOT metabolized | Compound NOT metabolized | – | Compound NOT metabolized | Compound NOT metabolized | – | Compound NOT metabolized
7 | OC(c1cc(C(F)(F)F)nc2c(C(F)(F)F)cccc12)C1CCCCN1 (configuration not stated) [MEFLOQUINE] | – | Compound metabolized | Compound NOT metabolized | Compound NOT metabolized | Compound NOT metabolized | Compound metabolized | Compound NOT metabolized
8 | CN[C@H]1CC[C@@H](c2ccc(Cl)c(Cl)c2)c2ccccc21 [SERTRALINE] | – | – | Compound NOT metabolized | Compound NOT metabolized | Compound NOT metabolized | Compound NOT metabolized | Compound NOT metabolized
9 | CCCc1nc2c(C)cc(-c3nc4ccccc4n3C)cc2n1Cc1ccc(-c2ccccc2C(=O)O)cc1 | – | Compound NOT metabolized | Compound NOT metabolized | Compound metabolized | Compound metabolized | Compound NOT metabolized | Compound metabolized
10 | CC(=O)OCC(=O)[C@@]1(O)[C@@H](C)C[C@H]2[C@@H]3CCC4=CC(=O)C=C[C@]4(C)[C@@]3(F)[C@@H](O)C[C@@]21C [BETAMETHASONE ACETATE] | – | Compound NOT metabolized | Compound NOT metabolized | – | – | Compound NOT metabolized | Compound metabolized
11 | O=c1n(CCCN2CCN(c3cccc(Cl)c3)CC2)nc2ccccn12 [TRAZODONE] | – | Compound NOT metabolized | Compound NOT metabolized | Compound NOT metabolized | Compound NOT metabolized | Compound NOT metabolized | Compound NOT metabolized
12 | CC1=C(CC(=O)O)c2cc(F)ccc2/C1=C\c1ccc([S+](C)[O-])cc1 (configuration not stated) | Compound NOT metabolized | Compound NOT metabolized | – | Compound NOT metabolized | Compound NOT metabolized | Compound NOT metabolized | Compound NOT metabolized
13 | CCN1CCCC1CNC(=O)c1cc(S(N)(=O)=O)ccc1OC (configuration not stated) [SULPIRIDE] | – | Compound NOT metabolized | Compound NOT metabolized | Compound metabolized | Compound NOT metabolized | Compound NOT metabolized | Compound NOT metabolized
14 | CNNCc1ccc(C(=O)NC(C)C)cc1 [PROCARBAZINE] | Compound NOT metabolized | Compound NOT metabolized | Compound NOT metabolized | Compound metabolized | Compound NOT metabolized | – | Compound NOT metabolized
15 | CCOC(=O)C1=C[C@]2(CC)CCCN3CCc4c(n1c1ccccc41)[C@@H]32 [VINPOCETINE] | – | – | Compound NOT metabolized | – | Compound NOT metabolized | Compound NOT metabolized | Compound NOT metabolized
16 | CNS(=O)(=O)Cc1ccc2[nH]cc(CCN(C)C)c2c1.O=C(O)CCC(=O)O [SUMATRIPTAN SUCCINATE] | Compound NOT metabolized | Compound NOT metabolized | Compound NOT metabolized | Compound metabolized | – | – | –
17 | CC(C)c1nc(N(C)S(C)(=O)=O)nc(-c2ccc(F)cc2)c1/C=C/[C@@H](O)C[C@@H](O)CC(=O)[O-].CC(C)c1nc(N(C)S(C)(=O)=O)nc(-c2ccc(F)cc2)c1/C=C/[C@@H](O)C[C@@H](O)CC(=O)[O-].[Ca+2] [ROSUVASTATIN CALCIUM] | Compound NOT metabolized | Compound NOT metabolized | Compound NOT metabolized | – | – | – | Compound NOT metabolized
18 | N=C(N)NC(=O)Cc1c(Cl)cccc1Cl [GUANFACINE] | Compound NOT metabolized | Compound NOT metabolized | Compound NOT metabolized | Compound NOT metabolized | Compound NOT metabolized | – | Compound NOT metabolized
19 | CCN(CC)CCCC(C)Nc1c2ccc(Cl)cc2nc2ccc(OC)cc12 (configuration not stated) [QUINACRINE] | Compound NOT metabolized | Compound NOT metabolized | – | – | Compound NOT metabolized | Compound NOT metabolized | Compound NOT metabolized
20 | Cc1cn([C@H]2C[C@H](N=[N+]=[N-])[C@@H](CO)O2)c(=O)[nH]c1=O [ZIDOVUDINE] | – | Compound metabolized | Compound NOT metabolized | Compound NOT metabolized | Compound NOT metabolized | Compound NOT metabolized | Compound metabolized
21 | COc1cc2nc(N3CCN(C(=O)C4CCCO4)CC3)nc(N)c2cc1OC (configuration not stated) [TERAZOSIN] | – | Compound NOT metabolized | Compound NOT metabolized | Compound NOT metabolized | Compound NOT metabolized | Compound NOT metabolized | Compound NOT metabolized
22 | c1ccc2[nH]c(-c3cscn3)nc2c1 [THIABENDAZOLE] | – | Compound NOT metabolized | Compound NOT metabolized | – | – | Compound NOT metabolized | Compound NOT metabolized
